Measurements: PubChem BioAssay (NCI)
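Method: 48-hour compound exposure of cells in 96-well plates, five concentrations, linear interpolation of endpoints. TGI denotes the concentration required for complete inhibition of growth.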

How the values were obtained:
Assay in all cases: DTP human tumour cell line panel, 48 h
[1] = system: SNB-19 CNS
[2] = system: UACC-257 melanoma
[3] = system: DU-145 prostate
[4] = system: A498 renal
[5] = system: SF-295 CNS
[6] = system: NCI-H23 lung
[7] = system: 786-0 renal
[8] = system: SN12C renal
[9] = system: NCI-H522 lung
[10] = system: HOP-62 NSCLC
[11] = system: RPMI-8226 leukemia
[12] = system: SR leukemia
[13] = system: LOX IMVI melanoma
[14] = system: OVCAR-3 ovarian
[15] = system: MALME-3M melanoma
[16] = system: SK-MEL-28 melanoma
[17] = system: MOLT-4 leukemia
[18] = system: SK-OV-3 ovarian
[19] = system: HCC-2998 colon
[20] = system: CCRF-CEM leukemia

SMILES | TGI [1] | TGI [2] | TGI [3] | TGI [4] | TGI [5] | TGI [6] | TGI [7] | TGI [8] | TGI [9] | TGI [10] | TGI [11] | TGI [12] | TGI [13] | TGI [14] | TGI [15] | TGI [16] | TGI [17] | TGI [18] | TGI [19] | TGI [20]
CCOC(=O)[C@@]1(C(C)=O)CC(C)=C(C)C[S@]1=O | > 100 µM | > 100 µM | > 100 µM | > 100 µM | > 100 µM | > 100 µM | > 100 µM | > 100 µM | > 100 µM | > 100 µM | > 100 µM | > 100 µM | > 100 µM | > 100 µM | > 100 µM | > 100 µM | > 100 µM | > 100 µM | > 100 µM | 
O=C1CCC2(CC1CCS(=O)c1ccccc1)OCCO2 (stereo not drawn) | > 100 µM | > 100 µM | > 100 µM | > 100 µM | > 100 µM | > 100 µM | > 100 µM |  | > 100 µM | > 100 µM | > 100 µM | > 100 µM | > 100 µM | > 100 µM | > 100 µM | > 100 µM | > 100 µM | > 100 µM | > 100 µM | > 100 µM
Cc1cccc2c(NCCN(C)C)c3cccc(C(=O)NCCN(C)C)c3nc12 | 11.2 µM | 2.47 µM | 3.61 µM | 4.06 µM | 3.77 µM | 1.3 µM | 3.38 µM | 1.69 µM | 0.114 µM | 3.93 µM | 0.21 µM | 0.319 µM | 1.76 µM | 5.54 µM | 1.62 µM | 8.37 µM | 0.102 µM | 27.1 µM | 1.33 µM | 0.813 µM
Cc1nc(C)c(N2CCN(S(N)(=O)=O)CC2)c(=O)[nH]1 | > 100 µM | > 100 µM | > 100 µM | > 100 µM | > 100 µM | > 100 µM | > 100 µM | > 100 µM | > 100 µM | > 100 µM | > 100 µM | > 100 µM | > 100 µM | > 100 µM | > 100 µM | > 100 µM | > 100 µM | > 100 µM | > 100 µM | > 100 µM
CC(C)=NOC(=O)OC[C@H]1O[C@@H](n2cnc3c(N)ncnc32)C(O)C1O (stereo partly drawn) | > 100 µM |  | > 100 µM | > 100 µM | > 100 µM | > 100 µM | > 100 µM | > 100 µM | > 100 µM | > 100 µM | > 100 µM | > 100 µM | > 100 µM | > 100 µM | > 100 µM | > 100 µM | > 100 µM | > 100 µM | > 100 µM | > 100 µM
COCN1C(=N)C(C(=O)OC(C)(C)C)=C2C=C(O)C=CC21C (stereo not drawn) | > 100 µM | 22.5 µM | 24.2 µM | 36.9 µM | > 100 µM | 30.2 µM | 24.7 µM | 73.9 µM | 13.5 µM | 75.2 µM | > 100 µM | > 100 µM | 26.5 µM |  | 21.3 µM | 36.3 µM | > 100 µM | 84 µM | 40.5 µM | 50.7 µM
CC1=C[C@H]([C@H]2C=C(C)C(C(N)=O)=CN2Cc2c(Cl)cccc2Cl)N(Cc2c(Cl)cccc2Cl)C=C1C(N)=O | > 75 µM | > 75 µM | > 75 µM | > 75 µM | > 75 µM | > 75 µM | > 75 µM | > 75 µM | > 75 µM | > 75 µM | > 75 µM | > 75 µM | > 75 µM | > 75 µM | > 75 µM | > 75 µM | > 75 µM | > 75 µM | > 75 µM | > 75 µM
Nc1ncnc2c1ncn2[C@@H]1O[C@H](COP(=O)(O)OP(=O)(O)OC[C@H]2O[C@@H](OCCCO)[C@H](O)[C@@H]2O)[C@@H](O)[C@H]1O | > 100 µM | > 100 µM | > 100 µM | > 100 µM | > 100 µM | > 100 µM | > 100 µM | > 100 µM | > 100 µM | > 100 µM | > 100 µM | > 100 µM | > 100 µM | > 100 µM | > 100 µM | > 100 µM | > 100 µM | > 100 µM | > 100 µM | > 100 µM
O=C(O)/C=C/c1ccc(OS(=O)(=O)O)cc1 | > 100 µM | > 100 µM | > 100 µM | > 100 µM | > 100 µM | > 100 µM | > 100 µM | > 100 µM | > 100 µM | > 100 µM | > 100 µM | > 100 µM | > 100 µM | > 100 µM | > 100 µM | > 100 µM | > 100 µM | > 100 µM | > 100 µM | 
Cc1nn(C(=O)Cc2ccccc2)c2c1C(c1ccc([N+](=O)[O-])cc1)SC(N)=N2 (stereo not drawn) |  | > 100 µM | > 100 µM | > 100 µM | > 100 µM | > 100 µM | > 100 µM | > 100 µM | > 100 µM | > 100 µM | > 100 µM | > 100 µM | > 100 µM |  | > 100 µM | > 100 µM | > 100 µM | > 100 µM | > 100 µM | > 100 µM
O=C1/C(=C/c2ccccc2)CCc2ccc([N+](=O)[O-])cc21 | 91.3 µM | > 100 µM | > 100 µM | > 100 µM | > 100 µM | > 100 µM | > 80.3 µM | > 100 µM |  | > 100 µM | 7.13 µM | > 63.3 µM | > 100 µM | > 100 µM | > 100 µM | > 100 µM | > 100 µM | > 100 µM | > 100 µM | > 100 µM
O=C(c1ccccc1)N(CCCCNC(=O)C(F)(F)F)CCCNC(=O)C(F)(F)F | > 100 µM | > 100 µM | > 100 µM | > 100 µM | > 100 µM | > 100 µM | > 100 µM | > 100 µM | > 100 µM |  | > 100 µM | > 100 µM | > 100 µM |  | > 100 µM | > 100 µM | > 100 µM | > 100 µM | > 100 µM | > 100 µM
CCOC(=O)C(NC(=O)c1cccc(Cl)c1)(Nc1ccc(S(=O)(=O)Nc2cc(C)nc(C)n2)cc1)C(F)(F)F (stereo not drawn) | > 100 µM | > 100 µM | > 100 µM | > 100 µM | > 100 µM | > 100 µM | > 100 µM | > 100 µM | > 100 µM | > 100 µM | > 100 µM | > 100 µM | > 100 µM | > 100 µM | > 100 µM | > 100 µM | > 100 µM | > 100 µM | > 100 µM | > 100 µM
[N-]=[N+]=Nc1c(-c2ccccc2)c(=O)n(-c2ccccc2)c2ccccc12 |  | > 100 µM | > 100 µM | > 100 µM | > 100 µM | > 100 µM | > 100 µM | > 100 µM | 97.1 µM | > 100 µM | > 100 µM | > 100 µM | > 100 µM | > 100 µM | > 100 µM | > 100 µM | > 100 µM | > 100 µM | > 100 µM | > 100 µM
COc1ccc2nc3cc([N+](=O)[O-])ccc3c(Nc3ccc(S(=O)(=O)Nc4ncccn4)cc3)c2c1 | > 53.6 µM | > 100 µM | > 100 µM | > 81.3 µM | > 100 µM | > 23.2 µM | > 100 µM | > 100 µM | > 100 µM | > 100 µM | > 66.1 µM | > 30.5 µM | > 100 µM | > 100 µM | > 100 µM | > 100 µM | > 48.3 µM | > 100 µM | > 100 µM | > 100 µM
COC(=O)c1sc2c(=O)c(C(=O)OC)c(C(=O)OC)sc2c(=O)c1C(=O)OC | > 100 µM | > 100 µM | > 100 µM | > 100 µM | > 100 µM | > 100 µM | > 100 µM | > 100 µM | 65.2 µM | > 100 µM | > 100 µM | > 100 µM | > 100 µM | > 100 µM | > 100 µM | > 100 µM | > 100 µM | > 100 µM | > 100 µM | > 100 µM
N#CC1(C#N)[C@@H]2CCC=C(Sc3ccccc3)[C@@H]21 | 97.9 µM | 42.4 µM | 30.4 µM | > 100 µM | 32.8 µM |  | 35.5 µM | 32.3 µM | 24.5 µM |  | > 100 µM | > 100 µM | 36.8 µM | 31.1 µM | 32 µM | 28.9 µM | 85.9 µM | 39.6 µM | 32 µM | 63.1 µM
CCOC(=O)[C@@H](NC(=O)OC(C)(C)C)[C@@H](O)C(=O)OCC | > 100 µM | > 100 µM | > 100 µM | > 100 µM | > 100 µM | > 100 µM | > 100 µM | > 100 µM |  | > 100 µM | > 100 µM | > 100 µM | > 100 µM | > 100 µM | > 100 µM | > 100 µM | > 100 µM | > 100 µM | > 100 µM | > 100 µM
Cc1nc(-n2nc(-c3ccccc3)cc2-c2ccccc2)sc1C(=O)/C=C/c1ccc([N+](=O)[O-])cc1 | > 100 µM | > 71.7 µM | > 100 µM | > 65.8 µM | > 100 µM | > 54.9 µM | 29.8 µM | > 76.4 µM | 66.1 µM | > 94.4 µM | 23.5 µM | 24.2 µM | 52.5 µM | 45.3 µM | > 100 µM | > 100 µM | 51.5 µM | > 100 µM | 38.1 µM | 48.1 µM
CN(/N=C/c1ccc(Cl)c(Cl)c1)C1=NCCCCN1 | > 100 µM | 50.8 µM | > 100 µM | 49.2 µM | > 100 µM | > 100 µM | 47.8 µM | > 100 µM | 33.7 µM | 35.4 µM | 64 µM | > 100 µM | 27.2 µM | > 100 µM | 32.5 µM |  | 80.9 µM | > 100 µM | 63.9 µM | 83.5 µM
O=C(Nc1ccccc1)c1cc(S(=O)(=O)N2CCNC2=O)c(S)cc1Cl | > 100 µM | > 100 µM | > 100 µM | > 100 µM | > 100 µM | > 100 µM | > 100 µM | > 100 µM | > 100 µM | > 100 µM | > 100 µM | > 100 µM | > 100 µM | > 100 µM |  | > 100 µM | > 100 µM | > 100 µM | > 100 µM | > 100 µM
C1=CCC[C@@H]2CN3CCCC/C=C\CCCC[C@H]4C[C@H](CN(CCCCCCCC1)C4)[C@H]2CC3 | 22.2 µM | 18.1 µM | > 50 µM | 30.3 µM | 16.4 µM | 34.5 µM | 15.9 µM | 21 µM | 17.7 µM | 15.6 µM | 16.7 µM | 20.1 µM | 16 µM | 15.2 µM | 17.5 µM | 14.7 µM | 21.2 µM | > 50 µM | 14.4 µM | 34.9 µM
C=CCc1cccc2cc(C(=O)Nc3ccc(C)cc3)c(=N)oc12 | > 100 µM | > 100 µM | > 100 µM | > 100 µM |  | > 100 µM | > 100 µM | > 100 µM | > 100 µM | > 100 µM | > 100 µM | > 100 µM | > 100 µM | > 100 µM | > 100 µM | > 100 µM | > 100 µM | > 100 µM | > 100 µM | > 100 µM
